# Key:
# rat brain PKC = assay: PKC kinase activity, PepTag non-radioactive protein kinase assay; assay type: biochemical; conditions: PepTag gel; various dilutions of TPA; ether extract final dilution 1 in 5; crude sap and aqueous layer diluted 1/25
# Description: The kinase activity of rat brain PKC (Promega) was determined using the Peptag™ Non-Radioactive Protein Kinase Kit (Promega). Using agarose gel electrophoresis the technique visualises the opposing electrostatic charge of a fluorescently labeled peptide ([sequence]) compared to the phosphorylated version of the same peptide.
# The reaction mixture was separated by gel electrophoresis, showing migration of the unreacted substrate (a) to the anode (top), and the product (b), which is more negatively charged because of phosphorylation by PKC, moving towards the cathode (bottom).
# PKCα = target: T1, PKCα (Homo sapiens, UniProt P17252); assay type: cell-based; conditions: HeLa, one hour
# T1 construct: host or cells: HeLa cells
# Description: (§1) Five EGFP-PKC isoforms (Clontech) were available for this experiment, enabling the screening of the three predominant PKC families (i.e. classical, novel and atypical PKCs). The members of the various PKC families are α, β, and γ (classical), θ (novel) and ζ (atypical).
# (§2) HeLa cells were plated out in a 24-well plate containing coverslips and transfected with PKC isoforms fused to EGFP, using a commercially available effectine-transfection kit (QIAGEN, Pty. Ltd.). Cells were exposed to the transfection reagents for 16-24 hr. Subsequently, transfected cells were treated for one hour with TPA (100 ng/mL), bryostatin-1 (5 pg/mL), PEP003 (2.25 μg/mL; 5 μM) or PEP005 ([…]) 1.5 μM). Following treatment, cells were fixed on coverslips and mounted on glass slides. The slides were subsequently examined visually by fluorescence microscopy, photographed, and over 150 cells were counted/treatment/PKC isoform. Counted cells were classified according to the localisation of the PKC-EGFP fluorescence as either cytoplasmic or plasma membrane using ImagePro™ 4.1 (FIG. 5). […] The number of these cells was also counted.
# PKCγ = target: T2, PKCγ (Homo sapiens, UniProt P05129); assay: EGFP-PKC translocation in HeLa cells (PKCγ); assay type: cell-based; conditions: one hour
# T2 construct: host or cells: HeLa cells
# Description: as §1
# as §2, with “counted. Results are presented as an average and standard deviation of percentages of cells (Table 1).” for “counted.”
# PKCθ = target: T3, PKCθ (Homo sapiens, UniProt Q04759); assay: EGFP-PKC translocation in HeLa cells (PKCθ); assay type: cell-based; conditions: one hour, same concentrations
# T3 construct: host or cells: HeLa cells
# Description: as §1
# as §2, with “counted. Results are presented as an average and standard deviation of percentages of cells (Table 1).” for “counted.”
# [1] = tested on: HIV-1 LAI strain in U1 cells; assay: Activation of latent HIV from U1 cells (p24 ELISA); assay type: cell-based; conditions: 20 hr culture
# Source text: A latently HIV-1 infected cell line (U1), derived from the promonocytic cell line U937 after infection with HIV-1 LAI strain, was used in these experiments. In the absence of activation, no or little virus (measured as p24 production) is produced by the U1 cell line. Phorbol esters are known to activate virus production from these cells (Tobiume et al., 1998) and so TPA/PMA was used as a positive control in these experiments.
# Supernatants were collected and viral replication monitored by determination of the amounts of HIV p24 gag protein in the culture supernatants by ELISA, using a NEN Life Science HIV-1 p24 ELISA kit. p24 values were calculated from OD values using a standard curve.
# [2] = tested on: Human peripheral blood mononuclear cells; assay: Phagocytic activity, nitroblue tetrazolium uptake; assay type: cell-based; conditions: 100 ng/mL, 20 min; controls <2%
# Description: Human peripheral blood mononuclear cells (PBMC) prepared by standard Ficoll separation comprise approximately 5% monocytes. PBMC were incubated with dihydroethidium, a reduced form of the dye which becomes fluorescent when oxidized by a respiratory burst, then treated in 10% FCS-RPMI 1640 at 37° C. for 15 min with crude E. peplus extract diluted 1/1000 or 100 ng/mL TPA and analyzed by flow cytometry using conventional methods (Handbook of Flow Cytometry Methods, p. 151). The mean channel numbers for fluorescence were 618 (controls) and 818 (E. peplus extract diluted 1/1000). […] Phagocytic activity was determined by a conventional method (Hudson and Hay, Practical Immunology, 3rd edition, p. 74). […] The average of three fields gave figures of <2% (controls), 10% (TPA) and 8.7% (E. peplus sap) cells stained blue.
# [3] = tested on: Peripheral blood mononuclear cells (granulocytes, monocytes, lymphocytes); assay: Respiratory burst, DCFH-DA H2O2 flow cytometry; assay type: cell-based; conditions: bisindolylmaleimide 10 ng/mL or 1 ng/mL
# Description: Experiments were also carried out using 2′,7′-dichlorofluorescein diacetate (DCFH-DA) to measure the production of H2O2. (J P Robinson, Oxidative burst methods, in Handbook of Flow Cytometry Methods, Wiley-Liss Inc, pp 147-149, 1993). H2O2 oxidizes the non-fluorescent probe (DCFH-DA) to a fluorescent probe that can then be detected by a flow cytometer. Peripheral blood mononuclear cells (PBMC) were extracted from a donor blood sample by lysis of heparinized blood and used in a suspension of 1×10^6/mL of phosphate buffer, pH 7.3. The cells were then incubated with DCFH-DA (1 μL/mL of 20 mM stock) for 15 minutes to allow it to be taken up and trapped by hydrolysis with cellular esterases. The cells were then stimulated by test compounds for 15 min at 37° C. Controls included in the experiment were unloaded control (cells with no DCFH-DA) and loaded control (cells with DCFH-DA, but no stimulation). These were used to monitor the non-specific oxidation of unstimulated cells. The cells were then analyzed on the flow cytometer (excitation at 488 nm, emission at 525±20 nm), gating each sample for individual cell populations—granulocytes, monocytes and lymphocytes (Table 3).
# T3 sequence (Q04759 whole entry): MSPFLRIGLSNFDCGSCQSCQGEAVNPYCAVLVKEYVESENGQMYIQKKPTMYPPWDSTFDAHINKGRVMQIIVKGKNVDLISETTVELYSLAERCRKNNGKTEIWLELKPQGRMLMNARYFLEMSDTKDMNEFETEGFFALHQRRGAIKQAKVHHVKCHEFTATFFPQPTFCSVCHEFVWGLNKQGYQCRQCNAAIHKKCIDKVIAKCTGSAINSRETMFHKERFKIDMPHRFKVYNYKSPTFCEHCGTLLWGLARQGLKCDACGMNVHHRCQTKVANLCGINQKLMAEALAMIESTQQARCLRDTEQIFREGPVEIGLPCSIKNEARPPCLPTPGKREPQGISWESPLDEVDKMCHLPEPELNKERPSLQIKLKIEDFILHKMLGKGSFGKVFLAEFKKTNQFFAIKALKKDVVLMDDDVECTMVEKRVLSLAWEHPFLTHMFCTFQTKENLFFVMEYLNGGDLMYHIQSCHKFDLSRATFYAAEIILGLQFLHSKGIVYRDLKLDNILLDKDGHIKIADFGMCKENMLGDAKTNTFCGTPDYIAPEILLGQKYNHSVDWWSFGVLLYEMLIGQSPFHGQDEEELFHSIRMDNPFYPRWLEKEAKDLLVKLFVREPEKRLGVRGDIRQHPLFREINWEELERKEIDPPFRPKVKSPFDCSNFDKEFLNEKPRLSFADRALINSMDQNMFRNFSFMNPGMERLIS
structure (smiles),measurement,setting,value
"CCCCCCCCCCCCCC(=O)O[C@@H]1[C@@H](C)[C@@]2(O)[C@@H](C=C(CO)C[C@]3(O)C(=O)C(C)=C[C@@H]23)C2C(C)(C)[C@@]21OC(C)=O (single isomer, unassigned) [TPA]",activation of PKC (FIG. 1),rat brain PKC,showed activation of PKC
same,number of PKCα transfected cells displaying Golgi-like fluorescence,PKCα,increase in the number of cells displaying Golgi-like fluorescence
same,translocation of PKCα from cytoplasm to plasma membrane,"PKCα; TPA 100 ng/mL, bryostatin-1 5 pg/mL, PEP003 2.25 μg/mL (5 μM)",translocated from the cytoplasm to the plasma membrane
same,number of PKCγ transfected cells displaying Golgi-like fluorescence,PKCγ,increase in the number of cells displaying Golgi-like fluorescence
same,translocation of PKCγ from cytoplasm to plasma membrane,"PKCγ; TPA 100 ng/mL, bryostatin-1 5 pg/mL, PEP003 2.25 μg/mL (5 μM), PEP005 670 μg/mL (1.5 μM)",translocated from the cytoplasm to the plasma membrane
same,translocation of PKCθ,PKCθ,translocated
same,activation of HIV from U1 cells (p24 production),[1],activated HIV from U1 cells
same,cells stained blue (NBT),[2],10%
same,respiratory burst with bisindolylmaleimide added,[3],blocked

# Reference: patent publication US9314458B2, “Topical use of ingenol-3-angelate or a salt thereof to treat skin cancer” (LEO Laboratories Limited, priority 2000, dated 2016)
